Measurements published in US10100052B2, “Compounds for the treatment of hepatitis B virus infection” (Gilead Sciences, Inc., priority 2016, dated 2018).

What was measured:
[1] = tested on: HBsAg; assay: PHH assay for inhibition of HBsAg; assay type: cell-based, genotype D (AD38-derived) HBV in primary human hepatocytes; conditions: Hepatitis B virus, 288 h, read-out: HBsAg EC50
Experimental: Primary human hepatocytes (PHH) (Bioreclamation IVT) were plated on collagen-coated flasks using Plating Media (Life Technologies) containing William's Medium E supplemented with 1% penicillin/streptomycin, 4 μg/mL human recombinant insulin, 2 mM GlutaMAX, 15 mM HEPES, 1 μM dexamethasone, 5% fetal bovine serum, and 0.2% Torpedo Antibiotic Mix (Bioreclamation IVT). After a 4-hour incubation at 37° C., cells were switched to Maintenance Media (Life Technologies) containing William's Medium E supplemented with 0.5% penicillin/streptomycin, 6.25 µg/mL human recombinant insulin, 6.25 μg/mL human transferrin, 6.25 ng/mL selenous acid, 1.25 mg/mL bovine serum albumin, 5.35 μg/mL linoleic acid, 2 mM GlutaMAX, 15 mM HEPES, 0.1 μM dexamethasone, 2% fetal bovine serum, 2% DMSO, and 0.2% Torpedo Antibiotic Mix (Bioreclamation IVT). On the next day, PHH were infected with 500 genome equivalent per cell of genotype D (AD38-derived) HBV in Maintenance Media supplemented with 4% PEG 8000 (Promega). After 24 hour incubation, cells were washed three times with William's Medium E and fed with fresh Maintenance Media. At 3 days after infection, infected PHH cells were seeded on 96-well plates pre-coated with collagen at a density of 65000 cells per well containing serially diluted solutions of certain compounds disclosed herein or DMSO (1% final concentration) in a final volume of 125 μl of Maintenance Media (Life Technologies) containing William's Medium E supplemented with 0.5% penicillin/streptomycin, 6.25 μg/mL human recombinant insulin, 6.25 μg/mL human transferrin, 6.25 ng/mL selenous acid, 1.25 mg/mL bovine serum albumin, 5.35 μg/mL linoleic acid, 2 mM GlutaMAX, 15 mM HEPES, 0.1 μM dexamethasone, 5% fetal bovine serum, 1 mM 1-amininobenzotriaole, and 0.2% Torpedo Antibiotic Mix (Bioreclamation IVT). Media with compounds was replenished every 2-3 days. After an incubation time of 12 days, secreted HBsAg in the supernatant were measured using a multiplex chemiluminescent (Mesoscale discovery, MSD) assay using capture and detection antibody pairs specific for HBsAg. Comparative Example 1 and Comparative Example 2 have the following structures and were prepared according to International Publication No. WO 2015/113990.

[2] = In vitro metabolic stability, hepatic microsomes (human); assay type: in vitro ADME; conditions: pooled hepatic microsomes, pH 7.4; human hepatic microsomes 1.0 mg/mL, 1 μM compound, NADPH and UDPGA cofactors; read-out: Microsome Stability T1/2 Human
Experimental: Pooled hepatic microsomes were diluted in […] potassium phosphate buffer to 1.0 mg/mL final protein concentration. Alamethicin was added to the microsomal fraction to permeabilize the membrane to allow access of the UDP-glucronic acid (UDPGA) co-substrate to the active site of the UDP glucuronosyl transferase (UGT) enzymes. The final concentration was 25 μg/mL (ratio 25 μg alamethicin/mg microsomal protein) and the microsomes were then placed on ice for 15 min prior to the start of the reaction. Test compound was added to a final concentration of 1 μM. Positive control compounds known to be metabolized by oxidative and UGT enzymes were used. The metabolic reaction was warmed to 37° C. and initiated by the addition of a cofactor mix that consisted of 1.55 mM NADP, 3.3 mM glucose-6-phosphate, 0.4 U/mL glucose-6-phosphate dehydrogenase, 5 mM UDP-glucuronic acid and 3.3 mM MgCl2 all dissolved in 0.1 M potassium phosphate buffer, pH 7.4. At 2, 12, 25, 45, and 65 min, 25 μL aliquots of the reaction mixture were transferred to plates containing 225 μl of quenching solution (acetonitrile containing 300 nM labetalol IS and 0.1% formic acid). After quenching, the plates are centrifuged at 3000×g for 30 minutes to precipitate proteins, and 10 μL aliquots of the supernatant are analyzed by HPLC coupled to a high-resolution mass spectrometer.
Quantification of test compounds and positive controls were performed using analyte/internal standard peak area ratios (PAR) measured on a Q-Exactive mass spectrometer (Thermo Scientific, San Jose, Calif.) coupled to an Aria Transcend LX-4 multiplex UHPLC system (Thermo Scientific, San Jose, Calif.). A Hypersil Gold C18 UHPLC column (1.9 […], 50×2.1 mm) was used with mobile phases A and B consisting of 0.1% formic acid in water and 0.1% formic acid in acetonitrile, respectively. […] Half-lives of compounds in the incubations were calculated from extracted data using GMSU/QuickCalc (Gubbs, Inc.) and data are summarized in the following Table 3.

[3] = MT-4 cytotoxicity assay; assay type: cell-based; conditions: human, MT-4 cells; five days incubation, Cell Titer Glo
Experimental: The MT-4 cell line (HTLV-1 transformed, human T lymphoblastoid cells) was obtained from the NIH AIDS Reagent program (Bethesda, Md.). MT-4 cells were maintained in RPMI-1640 supplemented with 10% fetal bovine serum (FBS, Hyclone, Logan, Utah). All cell culture media were also supplemented with 100 Units/mL penicillin, 100 μg/mL streptomycin (Gibco). For the MT-4 cytotoxicity assay, 0.4 μL of serially diluted solutions of certain compounds disclosed herein were added to 40 μL of cell maintenance media in 384-well black, solid bottom plate using a Biomek FX workstation (Beckman Coulter). Two thousand cells in 35 μL were added to each well using a Biotek uFlow Workstation (Biotek). Each assay plate contained 10 μM puromycin (final concentration) and 0.5% DMSO in RPMI-1640 as positive and negative controls, respectively. Assay plates were incubated for five days at 37° C. in an incubator set at 5% CO2 and 90% humidity. After five days, 22 μL of Cell Titer Glo reagent (Promega) was added to the assay plates with a Biotek uFlow Workstation. Plates were subsequently placed on a Perkin Elmer Envision Plate Reader for five minutes before the luminescence signal was read. CC50 values were calculated by non-linear regression using Pipeline Pilot software by applying a four parameter fit equation (Accelrys, San Diego, Calif.) and are reported in the following Table 2.

| Structure (SMILES) | EC50 [1] | half-life at 1 μM [2] | CC50 at 5 days [3] |
| --- | --- | --- | --- |
| COCCCOc1cc2c(cc1Cl)-c1cc(=O)c(C(=O)O)cn1[C@H](C(C)(C)C)C2 [Comparative Example 2] | 0.5 nM | 4.9 h | 5700 nM |
| COCCCOc1cc2c(cc1Cl)-c1cc(=O)c(C(=O)O)cn1N(C(C)(C)C)C2 [Example 2, 6-(tert-Butyl)-10-chloro-9-(3-methoxypropoxy)-2-oxo-6,7-dihydro-2H-pyrido[2,1-a]-phthalazine-3-carboxylic acid] | 3 nM | > 5.83 h | > 10000 nM |
| COCCCOc1cc2c(cc1Cl)-c1cc(=O)c(C(=O)O)cn1[C@H](C1(C)CC1)C2 [Comparative Example 1] | 1.8 nM | 3.9 h | 4200 nM |
